Drawing on ChEMBL document CHEMBL3525956, “Species independence in brain tissue binding using brain homogenates” (Drug Metab Dispos, 2011), this text covers fraction unbound for 17 compounds.

Structures are written as SMILES.

Data set [1] is described as follows: Fraction unbound in Beagle dog brain homogenates at 1 uM after 6 hrs by equilibrium dialysis method. Conditions: brain homogenate.
Data set [2] can be described thus: Fraction unbound in CD-1 mouse brain homogenates at 1 uM after 6 hrs by equilibrium dialysis method. Conditions: brain homogenate.
Data set [3] is described as follows: Fraction unbound in cynomolgus monkey brain homogenates at 1 uM after 6 hrs by equilibrium dialysis method. The settings on record: brain homogenate.
Data set [4] in a line: Fraction unbound in human occipital cortex at 1 uM after 6 hrs by equilibrium dialysis method.
Data set [5] in a line: Fraction unbound in Sprague-Dawley rat brain homogenates at 1 uM after 6 hrs by equilibrium dialysis method. Conditions: brain homogenate.
Data set [6] can be described thus: Fraction unbound in Hartley guinea pig brain homogenates at 1 uM after 6 hrs by equilibrium dialysis method. The settings on record: brain homogenate.
Data set [7] is described as follows: Fraction unbound in Wistar Han rat brain homogenates at 1 uM after 6 hrs by equilibrium dialysis method. The settings on record: brain homogenate.

In the case of `COC(=O)C1=C(C)NC(C)=C(C(=O)OCCN(C)Cc2ccccc2)C1c1cccc([N+](=O)[O-])c1` (centres undefined) [NICARDIPINE], the free fraction (fraction unbound) at 6 h, 1 µM came to 0.006 in data set [1]; 0.004 in data set [2]; 0.006 in data set [3]; 0.006 in data set [4]; 0.008 in data set [5]; 0.004 in data set [6]. The free fraction (fraction unbound) at 6 h, 1 µM in data set [7] stood at 0.005.
With `NC(=O)N1c2ccccc2C=Cc2ccccc21` [CARBAMAZEPINE], the fraction unbound at 6 h, 1 µM in data set [1] came to 0.159; in data set [2], 0.173; in data set [3], 0.185; in data set [4], 0.171; in data set [5], 0.124; in data set [6] it was 0.128. Further, the fraction unbound at 6 h, 1 µM in data set [7] amounted to 0.171.
With `Cc1c(C(=O)NN2CCCCC2)nn(-c2ccc(Cl)cc2Cl)c1-c1ccc(Cl)cc1` [RIMONABANT], the unbound share (fraction unbound) at 6 h, 1 µM in data set [1] turned out to be 0.0005; in data set [2], 0.0004; in data set [3], 0.0006; in data set [4], 0.0005; in data set [5] it was 0.0006; in data set [6] it was 0.0004. This compound also returned a fraction unbound at 6 h, 1 µM in data set [7] of 0.0004.
On to `Cc1nc2n(c(=O)c1CCN1CCC(c3noc4cc(F)ccc34)CC1)CCCC2O` (centres undefined) [PALIPERIDONE], for which the fraction unbound at 6 h, 1 µM in data set [1] is 0.126; in data set [2], 0.129; in data set [3], 0.1; in data set [4], 0.116; in data set [5], 0.078; in data set [6], 0.101. In data set [7], the fraction unbound at 6 h, 1 µM turned out to be 0.092.
As to `CN(C)CCCN1c2ccccc2Sc2ccc(Cl)cc21` [CHLORPROMAZINE], the unbound share (fraction unbound) at 6 h, 1 µM in data set [1] was determined as 0.003; in data set [2] it was 0.003; in data set [3] it was 0.004; in data set [4], 0.003; in data set [5], 0.002; in data set [6], 0.003. The same compound returned a fraction unbound at 6 h, 1 µM in data set [7] of 0.003.
`CN(C)CCCN1c2ccccc2CCc2ccc(Cl)cc21` [CLOMIPRAMINE]: the unbound share (fraction unbound) at 6 h, 1 µM in data set [1] came out at 0.004; in data set [2], 0.004; in data set [3], 0.006; in data set [4], 0.004; in data set [5], 0.003; in data set [6], 0.003. Also, the free fraction (fraction unbound) at 6 h, 1 µM in data set [7] was determined as 0.004.
On to `CCCc1nc2c(C)cc(-c3nc4ccccc4n3C)cc2n1Cc1ccc(-c2ccccc2C(=O)O)cc1`, for which the fraction unbound at 6 h, 1 µM turned out to be 0.011 in data set [1]; 0.01 in data set [2]; 0.013 in data set [3]; 0.014 in data set [4]; 0.017 in data set [5]; 0.008 in data set [6]. This compound returned a fraction unbound at 6 h, 1 µM in data set [7] of 0.013.
In the case of `CC(C)(C)NCC(O)COc1ccc(NC(=O)NC2CCCCC2)cc1` (centres undefined) [TALINOLOL], the fraction unbound at 6 h, 1 µM in data set [1] worked out at 0.247; in data set [2], 0.117; in data set [3], 0.176; in data set [4], 0.137; in data set [5], 0.096; in data set [6] it was 0.117. In data set [7], this compound returned a free fraction (fraction unbound) at 6 h, 1 µM of 0.141.
Take `CCN(C)C(=O)Oc1cccc([C@H](C)N(C)C)c1` [RIVASTIGMINE]: the fraction unbound at 6 h, 1 µM in data set [1] turned out to be 0.487; in data set [2], 0.341; in data set [3], 0.316; in data set [4] it was 0.345; in data set [5], 0.241; in data set [6] it was 0.389. In addition, the unbound share (fraction unbound) at 6 h, 1 µM in data set [7] is 0.338.
For `CN1Cc2c(N)cccc2C(c2ccccc2)C1` (centres undefined) [NOMIFENSINE], the fraction unbound at 6 h, 1 µM was 0.072 in data set [1]; 0.078 in data set [2]; 0.068 in data set [3]; 0.071 in data set [4]; 0.064 in data set [5]; 0.068 in data set [6]. In data set [7], this compound came in with an unbound share (fraction unbound) at 6 h, 1 µM of 0.066.
Regarding `Cc1ccc(C(=O)c2cc(O)c(O)c([N+](=O)[O-])c2)cc1` [TOLCAPONE], the fraction unbound at 6 h, 1 µM in data set [1] was 0.05; in data set [2], 0.002; in data set [3] it was 0.003; in data set [4], 0.003; in data set [5], 0.007; in data set [6] it was 0.002. The same compound returned a free fraction (fraction unbound) at 6 h, 1 µM in data set [7] of 0.001.
Take `CNCCCN1c2ccccc2CCc2ccccc21` [DESIPRAMINE]: the fraction unbound at 6 h, 1 µM in data set [1] turned out to be 0.017; in data set [2] it was 0.011; in data set [3] it was 0.012; in data set [4], 0.011; in data set [5], 0.008; in data set [6] it was 0.007. The compound also had an unbound share (fraction unbound) at 6 h, 1 µM in data set [7] of 0.013.
Take `O=C(O[C@H]1CN2CCC1CC2)N1CCc2ccccc2[C@@H]1c1ccccc1` [SOLIFENACIN]: the unbound share (fraction unbound) at 6 h, 1 µM in data set [1] is 0.018; in data set [2] it was 0.016; in data set [3], 0.016; in data set [4] it was 0.017; in data set [5], 0.015; in data set [6] it was 0.014. The same compound yielded a free fraction (fraction unbound) at 6 h, 1 µM in data set [7] of 0.019.
As to `CCCCCCCN(CC)CCCC(O)c1ccc(NS(C)(=O)=O)cc1` (centres undefined) [IBUTILIDE], the fraction unbound at 6 h, 1 µM came out at 0.119 in data set [1]; 0.114 in data set [2]; 0.078 in data set [3]; 0.091 in data set [4]; 0.081 in data set [5]; 0.075 in data set [6]. In addition, the fraction unbound at 6 h, 1 µM in data set [7] stood at 0.104.
Regarding `CCN(CC)CCNC(=O)c1cc(Cl)c(N)cc1OC` [METOCLOPRAMIDE], the fraction unbound at 6 h, 1 µM turned out to be 0.294 in data set [1]; 0.23 in data set [2]; 0.413 in data set [3]; 0.295 in data set [4]; 0.145 in data set [5]; 0.237 in data set [6]. In addition, the fraction unbound at 6 h, 1 µM in data set [7] came to 0.224.
Take `NC12CC3CC(CC(C3)C1)C2` [AMANTADINE]: the unbound share (fraction unbound) at 6 h, 1 µM worked out at 0.218 in data set [1]; 0.181 in data set [2]; 0.1 in data set [3]; 0.171 in data set [4]; 0.147 in data set [5]; 0.178 in data set [6]. Also, the fraction unbound at 6 h, 1 µM in data set [7] came to 0.213.
`CO[C@H]1/C=C/O[C@@]2(C)Oc3c(C)c(O)c4c(O)c(c(/C=N/N5CCN(C)CC5)c(O)c4c3C2=O)NC(=O)/C(C)=C\C=C\[C@H](C)[C@H](O)[C@@H](C)[C@@H](O)[C@@H](C)[C@H](OC(C)=O)[C@@H]1C` [RIFAMPIN]: the fraction unbound at 6 h, 1 µM came out at 0.259 in data set [1]; 0.121 in data set [2]; 0.162 in data set [3]; 0.119 in data set [4]; 0.068 in data set [5]; 0.118 in data set [6]. Further, the free fraction (fraction unbound) at 6 h, 1 µM in data set [7] was 0.121.
